From US12583839B2, “PD-L1 antagonist compound” (ADLAI NORTYE BIOPHARMA CO., LTD., priority 2019, dated 2026)

These compounds were tested against T1, PD-1/PD-L1 (Homo sapiens, UniProt Q9NZQ7) (assay: Detection of biological activity of PD-1/PD-L1 signaling inhibition at the cellular level (NFAT luciferase reporter, PD-1/NFAT-Reporter-Jurkat cells co-cultured with TCR activator/PD-L1-CHO cells)). Conditions: PD-1/NFAT-Reporter-Jurkat + TCR activator/PD-L1-CHO co-culture, 6 hours; Atezolizumab as positive control.
T1 construct: 60535 (PD-1/NFAT-Reporter-Jurkat); host or cells: CHO cells expressing PD-L1; Jurkat cells expressing PD-1
Assay type: cell-based
Text: Detection of Biological Activity of PD-1/PD-L1 Signaling Inhibition at the Cellular Level
This detection method is used for evaluating the biological activity of the compounds described in the present invention at the cellular level.
This detection method uses the luciferase reporter gene method to detect the biological activity of the compound on the inhibition of PD-1/PD-L1 signal at the cellular level. PD-1/NFAT—Reporter—Jurkat cells stably express human PD-1 and express the luciferase reporter gene regulated by NFAT elements; TCR activator/PD-L1-CHO cells stably express human PD-L1 and TCR activator elements. When the two cell lines were co-cultured, the binding of PD-1/PD-L1 inhibited the TCR signaling pathway, thereby inhibiting the expression of the downstream NFAT-controlled luciferase reporter gene. When PD-1/PD-L1 antibody or inhibitor is added, this inhibitory effect is reversed and luciferase is expressed, so that the effect of PD-1/PD-L1 inhibitor on luciferase activity can be detected.
PD-1/NFAT—Reporter—Jurkat cell (Cat: 60535) and TCR activator/PD-L1-CHO cell (Cat: 60536) were purchased from BPS Bioscience. Anti-human PD-L1 antibody (Atezolizumab, Cat: A2004) was purchased from Selleck; luciferase reporter gene expression detection kit (ONE-Glo™ Luciferase Assay System, Cat: E6120) was purchased from Promega; multifunction plate reader (SpectraMax i3x) was purchased from Molecular Devices.
The PD-1/NFAT—Reporter—Jurkat cells and TCR activator/PD-L1-CHO cells were cultured according to the routine cell culture protocol.
TCR activator/PD-L1-CHO cells were harvested and seeded into a 96-well culture plate at 35,000 cells/well in a medium volume of 100 μl and incubated overnight at 37° C. The next day, the medium was discarded, compound was added and incubated for 30 minutes, while a solvent control (dimethyl sulfoxide, DMSO, final concentration of 0.1%) and PD-L1 antibody (Atezolizumab, final concentration of about 10 nM) as positive controls were set. PD-1/NFAT-reporter-Jurkat cells were then added. After culturing for 6 hours, the luciferase activity was detected according to the instructions of the luciferase detection reagent.
Using PD-L1 antibody as a positive control, calculate the inhibition rate of PD-1/PD-L1 binding of the test compound (%)=(chemiluminescence value of compound treated wells/average value of chemiluminescence value of solvent control wells−1)/(average value of chemiluminescence value of PD-L1 antibody well/average value of chemiluminescence value of solvent control well−1)×100%.
According to the above detection method, the compounds of the present invention were evaluated for their biological activity at the cellular level, and the activity results are shown in the following table.

T1 sequence (Q9NZQ7 19-290): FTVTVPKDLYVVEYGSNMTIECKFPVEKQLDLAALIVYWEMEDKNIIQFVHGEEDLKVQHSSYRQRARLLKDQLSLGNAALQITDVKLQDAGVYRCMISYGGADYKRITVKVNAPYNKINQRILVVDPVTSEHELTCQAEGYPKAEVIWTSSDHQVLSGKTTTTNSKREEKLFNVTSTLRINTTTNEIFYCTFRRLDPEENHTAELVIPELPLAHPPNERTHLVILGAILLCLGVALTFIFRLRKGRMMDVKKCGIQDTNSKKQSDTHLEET

Q: Which EC50 does the source give for `COc1cc(-c2cccc(-c3cccc4c3cnn4Cc3cc(OC)c(CNC[C@H]4CC[C@H](C(=O)O)CC4)cc3Cl)c2Cl)ccc1CNC[C@@H]1CCC(=O)N1` [Compound 54] here?
A: 38 nM

Q: `COc1cc(-c2cccc(-c3cccc4c3cnn4Cc3cc(OC)c(CN(C)C[C@H]4CC[C@H](C(=O)O)CC4)cc3Cl)c2Cl)ccc1CNC[C@@H]1CCC(=O)N1` [Compound 55] was tested. Which EC50 did it give?
A: 66 nM

Q: Which EC50 does the source give for `COc1cc(-c2cccc(-c3cccc4c3cnn4Cc3cc(OC)c(CN[C@H]4CC[C@H](C(=O)O)CC4)cc3Cl)c2Cl)ccc1CNC[C@@H]1CCC(=O)N1` [Compound 56] here?
A: 50 nM

Q: How did the EC50 turn out when `COc1cc(-c2cccc(-c3cccc4c3cnn4Cc3cc(OC)c(CN(C)[C@H]4CC[C@H](C(=O)O)CC4)cc3Cl)c2Cl)ccc1CNC[C@@H]1CCC(=O)N1` [Compound 57] was run?
A: 38 nM

Q: Which EC50 does the source give for `COc1cc(-c2cccc(-c3cccc4c3cnn4Cc3cc(OC)c(CNC[C@@H]4CCC(=O)N4)cc3Cl)c2Cl)ccc1CNC[C@@H]1CCC(=O)N1` [Compound 58] here?
A: 69 nM

Q: With `COc1cc(-c2cccc(-c3cccc4c3cnn4Cc3cc(OC)c(CN[C@H]4CC[C@@H](C(=O)O)CC4)cc3Cl)c2Cl)ccc1CNC[C@@H]1CCC(=O)N1` [Compound 59] as the compound, how does the EC50 read?
A: 37 nM

Q: How did the EC50 turn out when `COc1cc(-c2cccc(-c3cccc4c3cnn4Cc3cc(OC)c(CN(C)[C@H]4CC[C@@H](C(=O)O)CC4)cc3Cl)c2Cl)ccc1CNC[C@@H]1CCC(=O)N1` [Compound 60] was run?
A: 33 nM

Q: Which EC50 does the source give for `COc1cc(Cn2ncc3c(-c4cccc(-c5ccc(CN6CC[C@@H](O)C6)cc5)c4Cl)cccc32)c(Cl)cc1CNC[C@H]1CC[C@H](C(=O)O)CC1` [Compound 63] here?
A: 950 nM

Q: Which EC50 does the source give for `COc1cc(Cn2ncc3c(-c4cccc(-c5ccc(CN6CC[C@@H](C(=O)O)C6)cc5)c4Cl)cccc32)c(Cl)cc1CN1CC[C@@H](O)C1` [Compound 69] here?
A: 805 nM

Q: With `COc1cc(Cn2ncc3c(-c4cccc(-c5ccc(CN6CC[C@@H](C(=O)O)C6)c(OC)c5)c4Cl)cccc32)c(Cl)cc1CNC[C@@H]1CCC(=O)N1` [Compound 70] as the compound, how does the EC50 read?
A: 222 nM

Q: With `COc1cc(Cn2ncc3c(-c4cccc(-c5ccc(CN6CC[C@@H](C(=O)O)C6)c(OC)c5)c4Cl)cccc32)c(Cl)cc1CN1CC[C@@H](O)C1` [Compound 71] as the compound, how does the EC50 read?
A: 693 nM

Q: `COc1cc(Cn2ncc3c(-c4cccc(-c5ccc(CNC[C@@H]6CCC(=O)N6)cc5)c4Cl)cccc32)c(C#N)cc1CN[C@@H](CO)C(=O)O` [Compound 75] was tested. Which EC50 did it give?
A: 142 nM

Q: `COc1cc(Cn2ncc3c(-c4cccc(-c5ccc(CNC[C@@H]6CCC(=O)N6)cc5)c4Cl)cccc32)c([N+](=O)[O-])cc1CN[C@@H](CO)C(=O)O` [Compound 76] was tested. Which EC50 did it give?
A: 49 nM

Q: `COc1nc(Cn2ncc3c(-c4cccc(-c5ccc(CNC[C@@H]6CCC(=O)N6)cc5)c4Cl)cccc32)c(Cl)cc1CN[C@@H](CO)C(=O)O` [Compound 80] was tested. Which EC50 did it give?
A: 302 nM

Q: With `COc1cc(Cn2nc(F)c3c(-c4cccc(-c5ccc(CNC[C@@H]6CCC(=O)N6)cc5)c4Cl)cccc32)c(Cl)cc1CN[C@@H](CO)C(=O)O` [Compound 83] as the compound, how does the EC50 read?
A: 92 nM

Q: With `COc1cc(Cn2ncc3c(-c4cccc(-c5ccc(CNC[C@@H]6CCC(=O)N6)cc5)c4Cl)cccc32)c(Cl)cc1CNCc1nnn[nH]1` [Compound 85] as the compound, how does the EC50 read?
A: 469 nM

Q: `O=C(O)COc1cc(Cn2ncc3c(-c4cccc(-c5ccc(CNC[C@@H]6CCC(=O)N6)cc5)c4Cl)cccc32)c(Cl)cc1CNCCO` [Compound 86] was tested. Which EC50 did it give?
A: 395 nM

Q: With `COc1cc(-c2cccc(-c3cccc4c3cnn4Cc3cc(OC)c(CN4CC[C@@H](C(=O)O)C4)cc3Cl)c2Cl)ccc1CN1CC[C@@H](O)C1` [Compound 87] as the compound, how does the EC50 read?
A: 692 nM

Q: With `COc1cc(-c2cccc(-c3cccc4c3cnn4Cc3cc(OC)c(CN4CC[C@@H](C(=O)O)C4)cc3Cl)c2Cl)ccc1CNCCO` [Compound 88] as the compound, how does the EC50 read?
A: 80 nM

Q: For `COc1cc(Cn2ncc3c(-c4cccc(-c5ccc(CNC[C@@H]6CCC(=O)N6)cc5)c4Cl)cccc32)c(N)cc1CN[C@@H](CO)C(=O)O` [Compound 89], which EC50 is on record?
A: 1110 nM

Q: With `COc1cc(-c2cccc(-c3cccc4c3cnn4Cc3cc(OC)c(CN4CC[C@@H](C(=O)O)C4)cc3Cl)c2C)ccc1CNC[C@@H]1CCC(=O)N1` [Compound 90] as the compound, how does the EC50 read?
A: 150 nM

Q: For `COc1cc(Cn2ncc3c(-c4cccc(-c5ccc(CNC[C@@H]6CCC(=O)N6)c(OC)n5)c4Cl)cccc32)c(Cl)cc1CN(C)CC1CCC(C(=O)O)CC1` (stereo partly shown) [Compound 91], which EC50 is on record?
A: 92 nM

Q: Which EC50 does the source give for `COc1cc(-c2cccc(-c3cccc4c3cnn4Cc3cc(OC)c(CN(C)C4CCC(C(=O)O)CC4)cc3[N+](=O)[O-])c2Cl)ccc1CNC[C@@H]1CCC(=O)N1` (stereo partly shown) [Compound 92] here?
A: 15 nM

Q: For `COc1cc(-c2cccc(-c3cccc4c3cnn4Cc3cc(OC)c(CN(C)[C@H]4C[C@H](C(=O)O)C4)cc3Cl)c2Cl)ccc1CNC[C@@H]1CCC(=O)N1` [Compound 93], which EC50 is on record?
A: 21 nM

Q: How did the EC50 turn out when `COc1cc(-c2cccc(-c3cccc4c3cnn4Cc3cc(OC)c(CN4CCC(CC(=O)O)CC4)cc3Cl)c2Cl)ccc1CNC[C@@H]1CCC(=O)N1` [Compound 94] was run?
A: 142 nM

Q: Which EC50 does the source give for `COc1cc(-c2cccc(-c3cccc4c3cnn4Cc3cc(OC)c(CN(C)[C@H]4CC[C@H](CC(=O)O)CC4)cc3Cl)c2Cl)ccc1CNC[C@@H]1CCC(=O)N1` [Compound 95] here?
A: 15 nM

Q: How did the EC50 turn out when `COc1cc(-c2cccc(-c3cccc4c3cnn4Cc3cc(OC)c(CN(C)CC4CCC(C(=O)O)CC4)cc3[N+](=O)[O-])c2Cl)ccc1CNC[C@@H]1CCC(=O)N1` (stereo partly shown) [Compound 96] was run?
A: 45 nM

Q: `CCOc1cc(-c2cccc(-c3cccc4c3cnn4Cc3cc(OC)c(CN(C)CC4CCC(C(=O)O)CC4)cc3Cl)c2Cl)ccc1CNC[C@@H]1CCC(=O)N1` (stereo partly shown) [Compound 97] was tested. Which EC50 did it give?
A: 273 nM

Q: Which EC50 does the source give for `COc1cc(Cn2ncc3c(-c4cccc(-c5ccc(CNC[C@@H]6CCC(=O)N6)c(OC(C)C)c5)c4Cl)cccc32)c(Cl)cc1CN(C)CC1CCC(C(=O)O)CC1` (stereo partly shown) [Compound 98] here?
A: 520 nM

Q: How did the EC50 turn out when `COc1cc(-c2cccc(-c3cccc4c3cnn4Cc3cc(OC)c(CN4CC[C@H](CC(=O)O)C4)cc3Cl)c2Cl)ccc1CNC[C@@H]1CCC(=O)N1` [Compound 99] was run?
A: 62 nM

Q: With `COc1cc(Cn2ncc3c(-c4cccc(-c5ccc(CN(C)C[C@@H]6CCC(=O)N6)c(OC)c5)c4Cl)cccc32)c(Cl)cc1CN(C)CC1CCC(C(=O)O)CC1` (stereo partly shown) [Compound 100] as the compound, how does the EC50 read?
A: 745 nM

Q: For `COc1cc(Cn2ncc3c(-c4cccc(-c5cc(F)c(CNC[C@@H]6CCC(=O)N6)c(OC)c5)c4Cl)cccc32)c(Cl)cc1CN(C)CC1CCC(C(=O)O)CC1` (stereo partly shown) [Compound 101], which EC50 is on record?
A: 87 nM

Q: `COc1cc(Cn2ncc3c(-c4cccc(-c5cc(OC)c(CNC[C@@H]6CCC(=O)N6)c(OC)c5)c4Cl)cccc32)c(Cl)cc1CN(C)CC1CCC(C(=O)O)CC1` (stereo partly shown) [Compound 102] was tested. Which EC50 did it give?
A: 735 nM

Q: Which EC50 does the source give for `COc1cc(-c2cccc(-c3cccc4c3cnn4Cc3cc(OC)c(CN(C)C4CCC(C(=O)O)CC4)cc3S(C)(=O)=O)c2Cl)ccc1CNC[C@@H]1CCC(=O)N1` (stereo partly shown) [Compound 103] here?
A: 208 nM

Q: How did the EC50 turn out when `COc1cc(-c2cccc(-c3cccc4c3cnn4Cc3cc(OC)c(CN(C)[C@H]4C[C@@H](C(=O)O)C4)cc3Cl)c2Cl)ccc1CNC[C@@H]1CCC(=O)N1` [Compound 104] was run?
A: 46 nM

Q: For `COc1cc(-c2cccc(-c3cccc4c3cnn4Cc3cc(OC)c(CN(C)C45CCC(C(=O)O)(CC4)CC5)cc3Cl)c2Cl)ccc1CNC[C@@H]1CCC(=O)N1` [Compound 105], which EC50 is on record?
A: 20 nM

Q: For `COc1cc(-c2cccc(-c3cccc4c3cnn4Cc3cc(OC)c(CN(C)C4CC5(CC(C(=O)O)C5)C4)cc3Cl)c2Cl)ccc1CNC[C@@H]1CCC(=O)N1` (stereo partly shown) [Compound 106], which EC50 is on record?
A: 43 nM

Q: How did the EC50 turn out when `COc1cc(-c2cccc(-c3cccc4c3cnn4Cc3cc(OC)c(CN(C)C4CCC(C(=O)O)CC4)cc3C#N)c2Cl)ccc1CNC[C@@H]1CCC(=O)N1` (stereo partly shown) [Compound 107] was run?
A: 20 nM

Q: With `COc1cc(-c2cccc(-c3cccc4c3cnn4Cc3cc(OC)c(CN(C)C4CCC(CC(=O)O)CC4)cc3C#N)c2Cl)ccc1CNC[C@@H]1CCC(=O)N1` (stereo partly shown) [Compound 108] as the compound, how does the EC50 read?
A: 63 nM

Q: For `COc1cc(-c2cccc(-c3cccc4c3cnn4Cc3cc(OC)c(CN(C)[C@H]4CC[C@@H](CC(=O)O)CC4)cc3Cl)c2Cl)ccc1CNC[C@@H]1CCC(=O)N1` [Compound 109], which EC50 is on record?
A: 44 nM

Q: `COc1cc(-c2cccc(-c3cccc4c3cnn4Cc3cc(OC(C)C)c(CN(C)CC4CCC(C(=O)O)CC4)cc3Cl)c2Cl)ccc1CNC[C@@H]1CCC(=O)N1` (stereo partly shown) [Compound 110] was tested. Which EC50 did it give?
A: 495 nM

Q: Which EC50 does the source give for `COc1cc(Cn2ncc3c(-c4cccc(-c5ccc(CNC[C@@H]6CCC(=O)N6)cc5)c4Cl)cccc32)c(F)cc1CN(C)CC1CCC(C(=O)O)CC1` (stereo partly shown) [Compound 111] here?
A: 1040 nM

Q: How did the EC50 turn out when `COc1cc(-c2cccc(-c3cccc4c3cnn4Cc3cc(OC)c(CN(C)CC4CCC(C(=O)O)CC4)cc3C)c2Cl)ccc1CNC[C@@H]1CCC(=O)N1` (stereo partly shown) [Compound 112] was run?
A: 185 nM
